Data: patent publication US20210161997A1, “TREATING DISEASES VIA TARGETED MODULATION OF GENE SIGNALING NETWORKS” (Camp4 Therapeutics Corporation, priority 2018, published 2021)

How the values were obtained:
Type in all cases: cell-based
[1] = system: LECT2; assay: RNA-seq of LECT2 expression in compound-treated primary human hepatocytes
Protocol: (§1) Human hepatocytes were obtained from two donors from Massachusetts General Hospital, namely MGH54 and MGH63, and one donor from Lonza, namely HUM4111B. Cryopreserved hepatocytes were cultured in plating media for 16 hours, transferred to maintenance media for 4 hours. Cultured on serum-free media for 2 hours, then a compound was added. The hepatocytes were maintained on the serum-free media for 16 hours prior to gene expression analysis. Primary human hepatocytes were stored in the vapor phase of a liquid nitrogen freezer (about −130° C.).
(§2) Human hepatocytes cultured as described above were plated in 24-well format, adding 375,000 cells per well in a volume of 500 ul plating medium. Four hours before treatment, cells were washed with PBS and the medium was changed to either: fresh maintenance medium (complete) or modified maintenance medium.
(§3) Compound stocks were prepared at 1000× final concentration and added in a 2-step dilution to the medium to reduce risk of a compound precipitating out of solution when added to the cells, and to ensure reasonable pipetting volumes. One at a time, each compound was first diluted 10-fold in warm (about 37° C.) modified maintenance medium (initial dilution=ID), mixed by vortexing, and the ID was diluted 100-fold into the cell culture (e.g. 5.1 ul into 1 well of a 24-well plate containing 0.5 mL medium). The plate was mixed by carefully swirling and after all wells were treated and returned to the incubator overnight. If desired, separate plates/wells were treated with vehicle-only controls and/or positive controls. If using multi-well plates, controls were included on each plate. After about 18 hours, cells were harvested for further analysis, e.g., ChIP-seq, RNA-seq, ATAC-seq, etc.
(§4) This protocol is a modified version of the following protocols: MagMAX mirVana Total RNA Isolation Kit User Guide (Applied Biosystems #MAN0011131 Rev B.0), NEBNext Poly(A) mRNA Magnetic Isolation Module (E7490), and NEBNext Ultra Directional RNA Library Prep Kit for Illumina (E7420) (New England Biosystems #E74901).
(§5) The MagMAX mirVana kit instructions (the section titled “Isolate RNA from cells” on pages 14-17) were used for isolation of total RNA from cells in culture. Two hundred μl of Lysis Binding Mix was used per well of the multiwell plate containing adherent cells (usually a 24-well plate).
(§6) For mRNA isolation and library prep, the NEBNext Poly(A) mRNA Magnetic Isolation Module and Directional Prep kit was used. RNA isolated from cells above was quantified, and prepared in […] of each sample in 50 μl of nuclease-free water. This protocol may be run in microfuge tubes or in a 96-well plate.
(§7) Standard QC were applied (read integrity, mapping statistics, library complexity, fragment bias) to remove unsatisfactory samples. […] Log 2 fold change and significance values were computed using PME count data (with replicates explicitly modeled versus pan-experiment controls), median ratio normalized, using maximum likelihood estimation rather than maximum a posteriori, and disabling the use of Cook's distance cutoff when determining acceptable adjusted p-values. […] RNA-seq signals were also normalized by read depth and visualized using the UCSC browser.
(§8) To identify small molecules that modulate target gene expression, primary human hepatocytes were prepared as a monoculture, and at least one small molecule compound was applied to the cells.
(§9) RNA-seq was performed to determine the effects of the compounds on the expression of the target genes in hepatocytes. Fold change was calculated by dividing the level of expression in the cell system that had been perturbed by the level of expression in an unperturbed system. Changes in expression having a p-value ≤0.05 were considered significant.
(§10) Significance was defined as an FPKM ≥1, a log 2(fold change) ≥0.5, and a q-value of ≤0.05 for all targets except for CPOX.

[2] = system: UGT1A1; assay: RNA-seq of UGT1A1 expression in compound-treated primary human hepatocytes
Protocol: as §1, §2, §3, §4, §5, §6, §7, §8, §9, §10

[3] = system: SERPINC1 mRNA; assay: Quantitative PCR of SERPINC1 mRNA in mouse hepatocytes treated with compounds; conditions: for SERPINC1 mRNA, Mouse Heps, 1 uM: compound 1 uM; for SERPINC1 mRNA, Mouse Heps, 10 uM: compound 10 uM
Protocol: Samples were amplified using Taqman probes from ThermoFisher.
In some examples, RQ Min and RQ Max values are also reported. RQ Min and RQ Max are the minimum and maximum relative levels of gene expression in the test samples, respectively. They were calculated using the confidence level set in the analysis settings and the confidence level was set to one standard deviation (SD). These values were calculated using standard deviation as follows: […].
Compounds were tested in hepatocytes for upregulation of SERPINC1 mRNA for identification of potential treatments of SERPINC1/AT III deficiency.

[4] = system: SERPINC1 mRNA; assay: Quantitative PCR of SERPINC1 mRNA in primary human hepatocytes (Lonza Hu4282) treated with compounds; conditions: quantitative PCR
[5] = system: ANGPTL3; assay: RNA-seq of ANGPTL3 expression in compound-treated primary human hepatocytes; conditions: additional compounds (Table 13), linear fold change
Protocol: as §1, §2, §3, §4, §5, §6
All pass filter reads from each sample were mapped against the human genome (assembly GRCh38/GCA_000001405.15 “no alt” analysis set merged with hs38d1/GCA_000786075.2) using two pass mapping via STAR version 2.5.3a (alignment parameters alignIntronMin=20; alignIntronMax=1000000; outFilterMismatchNmax=999; outFilterMismatchNoverLmax=0.05; outFilterType=BySJout; outFilterMultimapNmax=20; alignSJoverhangMin=8; alignSJDBoverhangMin=1; alignMatesGapMax=1000000) (Dobin et al., Bioinformatics (2012) 29(1):15-21). Genomic alignments were converted to transcriptome alignments based on reference transcript annotations from the Human GENCODE Gene Set release 24 (Harrow et al., Genome Res. (2012) 22(9): 1760-1774). Using unique and multimapped transcriptomic alignments, gene-level abundance estimates were computed using RSEM version 1.3.0 (Li and Dewey, BMC Bioinformatics (2011) 12:323) in a strand-aware manner, and including confidence interval sampling calculations, to arrive at posterior mean estimates (PME) of abundances (counts and normalized FPKM—fragments per kilobase of exon per million mapped fragments) from the underlying Bayesian model. Standard QC were applied (read integrity, mapping statistics, library complexity, fragment bias) to remove unsatisfactory samples.

[6] = system: NOTCH2; assay: RNA-seq of NOTCH2 expression in compound-treated primary human hepatocytes; conditions: for NOTCH2 Fold Change (Log2): primary human hepatocytes; for Significant modulation of NOTCH2 (in words): summary of Table 6
Protocol: (§11) Human hepatocytes were obtained from two donors from Massachusetts General Hospital, namely MGH54 and MGH63, and one donor from Lonza, namely HUM4111B. Cryopreserved hepatocytes were cultured in plating media for 16 hours, transferred to maintenance media for 4 hours. Cultured on serum-free media for 2 hours, then a compound was added. The hepatocytes were maintained on the serum-free media for 16 hours prior to gene expression analysis. Primary human hepatocytes were stored in the vapor phase of a liquid nitrogen freezer (about -130° C.). Human hepatocytes cultured as described above were plated in 24-well format, adding 375,000 cells per well in a volume of 500 ul plating medium. Four hours before treatment, cells were washed with PBS and the medium was changed to either: fresh maintenance medium (complete) or modified maintenance medium. Compound stocks were prepared at 1000× final concentration and added in a 2-step dilution to the medium to reduce risk of a compound precipitating out of solution when added to the cells, and to ensure reasonable pipetting volumes. […] The plate was mixed by carefully swirling and after all wells were treated and returned to the incubator overnight. If desired, separate plates/wells were treated with vehicle-only controls and/or positive controls. If using multi-well plates, controls were included on each plate. After about 18 hours, cells were harvested for further analysis, e.g., ChIP-seq, RNA-seq, ATAC-seq, etc. This protocol is a modified version of the following protocols: MagMAX mirVana Total RNA Isolation Kit User Guide (Applied Biosystems #MAN0011131 Rev B.0), NEBNext Poly(A) mRNA Magnetic Isolation Module ([…]), and NEBNext Ultra Directional RNA Library Prep Kit for Illumina ([…]) (New England Biosystems #E74901). […] Two hundred μl of Lysis Binding Mix was used per well of the multiwell plate containing adherent cells (usually a 24-well plate). For mRNA isolation and library prep, the NEBNext Poly(A) mRNA Magnetic Isolation Module and Directional Prep kit was used. RNA isolated from cells above was quantified, and prepared in […] of each sample in 50 μl of nuclease-free water. This protocol may be run in microfuge tubes or in a 96-well plate. […] Genomic alignments were converted to transcriptome alignments based on reference transcript annotations from the Human GENCODE Gene Set release 24 (Harrow et al., Genome Res. […] Standard QC were applied (read integrity, mapping statistics, library complexity, fragment bias) to remove unsatisfactory samples. Differential gene expression was computed using the negative binomial model implemented by DESeq2 version 1.16.1 (Love et al., Genome Biol. (2014) 15(12):550). […] RNA-seq signals were also normalized by read depth and visualized using the UCSC browser. To identify small molecules that modulate target gene expression, primary human hepatocytes were prepared as a monoculture, and at least one small molecule compound was applied to the cells. RNA-seq was performed to determine the effects of the compounds on the expression of the target genes in hepatocytes. Fold change was calculated by dividing the level of expression in the cell system that had been perturbed by the level of expression in an unperturbed system.

[7] = system: JAG1; assay: RNA-seq of JAG1 expression in compound-treated primary human hepatocytes; conditions: for JAG1 Fold Change (Log2): primary human hepatocytes
Protocol: as §11

SMILES: CO[C@H]1/C=C/O[C@@]2(C)Oc3c(C)c(O)c4c(O)c(c(/C=N/N5CCN(C)CC5)c(O)c4c3C2=O)NC(=O)/C(C)=C\C=C\[C@H](C)[C@H](O)[C@@H](C)[C@@H](O)[C@@H](C)[C@H](OC(C)=O)[C@@H]1C [Rifampicin]
- LECT2 Fold Change (Log2) [1]: −0.88 Log2

SMILES: CC(C)c1nc(CN(C)C(=O)N[C@H](C(=O)N[C@@H](Cc2ccccc2)C[C@H](O)[C@H](Cc2ccccc2)NC(=O)OCc2cncs2)C(C)C)cs1 [Ritonavir]
- UGT1A1 Fold Change (Log2) [2]: 0.63 Log2
- LECT2 Fold Change (Log2) [1]: −1.00 Log2

SMILES: CN1C/C=C/CCOc2cccc(c2)-c2ccnc(n2)Nc2cccc(c2)C1 [SB1317/TG02]
- SERPINC1 mRNA, Mouse Heps, 1 uM [3]: 1.13
- SERPINC1 mRNA, Mouse Heps, 10 uM [3]: 1.85
- SERPINC1 mRNA, Lonza Hu4282, 1 uM ([4]; primary human hepatocytes Lonza Hu4282, compound 1 uM): 1.9
- SERPINC1 mRNA, Lonza Hu4282, 10 uM ([4]; primary human hepatocytes Lonza Hu4282, compound 10 uM): 2.28

SMILES: CN1CCN(CCCN2c3ccccc3Sc3ccc(C(F)(F)F)cc32)CC1 [TFP]
- LECT2 Fold Change (Log2) [1]: −0.91 Log2
- ANGPTL3-LINEAR FOLD CHANGE [5]: 0.2832

SMILES: CCOC(=O)N1c2ccc(C(F)(F)F)cc2[C@@H](N(Cc2cc(C(F)(F)F)cc(C(F)(F)F)c2)C(=O)OC)C[C@H]1CC [Torcetrapib]
- LECT2 Fold Change (Log2) [1]: −0.86 Log2
- NOTCH2 Fold Change (Log2) [6]: 0.76 Log2
- Significant modulation of NOTCH2 (in words) [6]: significantly modulate both JAG1 and NOTCH2
- JAG1 Fold Change (Log2) [7]: 0.68 Log2
- Significant modulation of JAG1 (in words) ([7]; summary of Table 6): significantly modulate both JAG1 and NOTCH2

SMILES: COc1nc(C)cnc1NS(=O)(=O)c1cccnc1-c1ccc(-c2nnco2)cc1 [Zibotentan]
- LECT2 Fold Change (Log2) [1]: −0.83 Log2
- NOTCH2 Fold Change (Log2) [6]: 0.94 Log2
- Significant modulation of NOTCH2 (in words) [6]: significantly modulate only NOTCH2
- JAG1 Fold Change (Log2) [7]: 0 Log2

SMILES: C[C@]12CC[C@@H]3c4ccc(O)cc4CC[C@H]3[C@@H]1CC[C@@H]2O [b-Estradiol]
- LECT2 Fold Change (Log2) [1]: −0.90 Log2

SMILES: COc1cccc2cc(-c3nc([C@H]4CC[C@H](C(=O)O)CC4)n4ncnc(N)c34)[nH]c12 [compound 308 (OSI-027)]
- SERPINC1 mRNA, Mouse Heps, 1 uM [3]: 1.53
- SERPINC1 mRNA, Mouse Heps, 10 uM [3]: 2.36
- SERPINC1 mRNA, H8290, 1 uM ([4]; hepatocytes H8290, compound 1 uM): 1.7
- SERPINC1 mRNA, H8290, 10 uM ([4]; hepatocytes H8290, compound 10 uM): 1.9
